Laboratory results reported in US8987193B2, “Nisin derivatives and the use thereof” (University College Cork—National University of Ireland, Cork, priority 2008, dated 2015).
Entries after “also recorded” stand apart in the source; their conditions may differ. Ends that are not written are not given here.

What was measured:
[1] = system: Staph. aureus ST528 (MRSA); assay: Deferred antagonism assay; format: cell-based; conditions: producing strain, diameter of zone minus diameter of bacterial growth (5 mm), average of duplicates
Protocol: (§1) Deferred antagonism assays were performed by replicating strains on GM17 or GM17 x-gal agar plates and allowing them to grow overnight before overlaying with either GM17/BHI/TS/MH agar (0.75% w/v agar) seeded with the appropriate indicator strain. Zone size was calculated as the diameter of the zone of clearing minus the diameter of bacterial growth (5 mm) For higher throughput screening of N20PXX, XM21VX, XXK22T and XXX banks deferred antagonism assays were performed by replicating strains using a 96 pin replicator (Boekel) or spotting 5 μl of a fresh overnight culture on GM17 agar plates and allowing them to grow overnight. […] Additional sets of indicators were employed to further assess/reassess the bioactivity of a number of strains. […] For well-diffusion assays molten agar was cooled to 48° C. and seeded with the appropriate indicator strain. The inoculated medium was rapidly transferred into sterile Petri plates in 50 ml volumes, allowed to solidify and dried. Wells (4.6 mm in diameter) were then made in the seeded plates. Purified nisin and mutant nisins were resuspended in 0.005% acetic acid, serially diluted, 50 μl volumes were dispensed into the aforementioned wells and the plates incubated at 37° C. overnight. Bioactivity was expressed as arbitrary units/ml (AU/ml) and calculated as the reciprocal of the highest dilution that gave a definite zone multiplied by the conversion factor (i.e. 20 when 50 μl was used) (Ryan et al., 1996).
(§2) As a consequence of the enhanced activities of K22T and K22S, a more in-depth investigation of this region was carried out. Saturation mutagenesis was undertaken to create a bank of nisin A hinge derivatives containing the vast majority of possible amino acid substitutions for each position. Although pPTPL was used successfully for random mutagenesis, its relatively large size of approx 10.5 kb was considered unsuitable for the complete plasmid PCR amplification approach utilized for saturation mutagenesis. A smaller (approx 6 kb) E. coli-L. lactis shuttle vector pCI372 was considered to be potentially more useful. Its suitability with respect to the in trans expression of nisA was confirmed by the ability of pDFO5 to restore the nisin positive phenotype. Saturation mutagenesis was performed on each codon using pDF05 and oligonucleotides (Table 5) that replace the specific codon with a NNK triplet, potentially encoding all 20 standard amino acids. Following complete plasmid amplification and introduction into the intermediate Top10 host, sequence analysis of a pooled bank of pDF05 derivatives confirmed randomization. Introduction of these variants into L. lactis NZ9800 allowed the expression of mutant nisin A peptides for further analysis. […] 46 residue conversions were isolated. All strains, regardless of bioactivity, were assessed with a view to comprehensively assessing the consequences of each individual hinge alteration.
(§3) Values are an average of duplicate experiments and represent zone size (diameter of zone minus diameter of bacterial growth (i.e. 5 mm) relative to that of the NZ9800 pCI372nisA control. X=Mutants not identified.

Staph. aureus DPC5245 = assay: Deferred antagonism assay; format: cell-based; conditions: producing strain; diameter of zone minus 5 mm; average of duplicates; St. aureus DPC5245
Protocol: as §1, §2, §3

[2] = system: Strep. agalactiae ATCC13813; assay: Deferred antagonism assay; format: cell-based; conditions: producing strain, diameter of zone minus 5 mm, average of duplicates
Protocol: as §1, §2, §3

indicator strains = assay: Deferred antagonism assays, various indicator strains (summary); format: cell-based; conditions: for bioactivity of the producing strain, in words: in general / against the strains tested; for Strain(s) against which the derivative (producing strain) displays enhanced bioactivity / Target strain against which the hinge mutant was selected for enhanced bioactivity: relative to nisin A-producing control; for Strain(s) against which the derivative (producing strain) displays enhanced bioactivity: value = strains listed; for Target strain against which the hinge mutant was selected for enhanced bioactivity: XX and XXX banks, L. lactis HP*: enhanced or equal
Method in brief: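 Producer strains were replicated on GM17 or GM17 x-gal agar, grown overnight, then overlaid with GM17, BHI, TS or MH soft agar (0.75% w/v) seeded with the indicator strain. Zone size was taken as the clearing diameter minus the diameter of bacterial growth (5 mm).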

L. monocytogenes CBC2 = assay: Deferred antagonism assay; format: cell-based, Listeria monocytogenes; design: key: + = Enhanced bioactivity relative to control; − = Bioactivity equal to or less than control; NA = no activity evident; conditions: L. mono CBC2; for bioactivity relative to a nisin A-producing control: XX and XXX hinge mutant producers
Protocol: as §1, §2

L. monocytogenes CBC1 = assay: Deferred antagonism assay; format: cell-based, Listeria monocytogenes; design: key: + = Enhanced bioactivity relative to control; − = Bioactivity equal to or less than control; NA = no activity evident; conditions: L. mono CBC1; for bioactivity relative to a nisin A-producing control: XX and XXX hinge mutant producers
Protocol: as §1, §2

L. monocytogenes CBC3 = assay: Deferred antagonism assay; format: cell-based, Listeria monocytogenes; design: key: + = Enhanced bioactivity relative to control; − = Bioactivity equal to or less than control; NA = no activity evident; conditions: L. mono CBC3; for bioactivity relative to a nisin A-producing control: XX and XXX hinge mutant producers
Protocol: as §1, §2

L. plantarum CBC6 = assay: Deferred antagonism assay; format: cell-based, Lactobacillus plantarum; design: key: + = Enhanced bioactivity relative to control; − = Bioactivity equal to or less than control; NA = no activity evident; conditions: for bioactivity relative to a nisin A-producing control: XX and XXX hinge mutant producers
Protocol: as §1, §2

S. aureus CBC4 = assay: Deferred antagonism assay; format: cell-based; design: key: + = Enhanced bioactivity relative to control; − = Bioactivity equal to or less than control; NA = no activity evident; conditions: for bioactivity relative to a nisin A-producing control: XX and XXX hinge mutant producers
Protocol: as §1, §2

L. lactis CBC8 = assay: Deferred antagonism assay; format: cell-based; design: key: + = Enhanced bioactivity relative to control; − = Bioactivity equal to or less than control; NA = no activity evident; conditions: for bioactivity relative to a nisin A-producing control: XX and XXX hinge mutant producers
Protocol: as §1, §2

L. lactis CBC7 = assay: Deferred antagonism assay; format: cell-based; design: key: + = Enhanced bioactivity relative to control; − = Bioactivity equal to or less than control; NA = no activity evident; conditions: for bioactivity relative to a nisin A-producing control: XX and XXX hinge mutant producers
Protocol: as §1, §2

C. sporogenes CBC5 = assay: Deferred antagonism assay; format: cell-based, Clostridium sporogenes; design: key: + = Enhanced bioactivity relative to control; − = Bioactivity equal to or less than control; NA = no activity evident; conditions: producing strain

## K22E: nisin A derivative, hinge substitution K22E; no detectable production (ITSISLCTPGCKTGALMGCNMETATCHCSIHVSK; cysteine pairing not given here; also: lantibiotic nisin-A; UniProt P13068 24-57, looked up, variant K22E)
[1]
  zone size relative to that of the NZ9800 pCI372nisA control: 0%
Staph. aureus DPC5245
  zone size relative to that of the NZ9800 pCI372nisA control: 0%
[2]
  zone size relative to that of the NZ9800 pCI372nisA control: 0%

## K22R: nisin A derivative, hinge substitution K22R (ITSISLCTPGCKTGALMGCNMRTATCHCSIHVSK; cysteine pairing not given here; also: lantibiotic nisin-A; UniProt P13068 24-57, looked up, variant K22R)
Indicator strains
  bioactivity of the producing strain, in words: greatly reduced bioactivities
[1]
  zone size relative to that of the NZ9800 pCI372nisA control: 42.5%
Staph. aureus DPC5245
  zone size relative to that of the NZ9800 pCI372nisA control: 45%
[2]
  zone size relative to that of the NZ9800 pCI372nisA control: 56%

## M21Q: nisin A derivative, hinge substitution M21Q (ITSISLCTPGCKTGALMGCNQKTATCHCSIHVSK; cysteine pairing not given here; also: lantibiotic nisin-A; UniProt P13068 24-57, looked up, variant M21Q)
Indicator strains
  bioactivity of the producing strain, in words: slightly diminished bioactivity
[1]
  zone size relative to that of the NZ9800 pCI372nisA control: 92%
Staph. aureus DPC5245
  zone size relative to that of the NZ9800 pCI372nisA control: 94%
[2]
  zone size relative to that of the NZ9800 pCI372nisA control: 98%

## M21R: nisin A derivative, hinge substitution M21R (ITSISLCTPGCKTGALMGCNRKTATCHCSIHVSK; cysteine pairing not given here; also: lantibiotic nisin-A; UniProt P13068 24-57, looked up, variant M21R)
Indicator strains
  bioactivity of the producing strain, in words: greatly reduced bioactivities
[1]
  zone size relative to that of the NZ9800 pCI372nisA control: 56.5%
Staph. aureus DPC5245
  zone size relative to that of the NZ9800 pCI372nisA control: 61%
[2]
  zone size relative to that of the NZ9800 pCI372nisA control: 66%

## M21T: nisin A derivative, hinge substitution M21T (ITSISLCTPGCKTGALMGCNTKTATCHCSIHVSK; cysteine pairing not given here; also: lantibiotic nisin-A; UniProt P13068 24-57, looked up, variant M21T)
[1]
  zone size relative to that of the NZ9800 pCI372nisA control: 110%
Staph. aureus DPC5245
  zone size relative to that of the NZ9800 pCI372nisA control: 112%
[2]
  zone size relative to that of the NZ9800 pCI372nisA control: 110%

## N20D: nisin A derivative, hinge substitution N20D (ITSISLCTPGCKTGALMGCDMKTATCHCSIHVSK; cysteine pairing not given here; also: lantibiotic nisin-A; UniProt P13068 24-57, looked up, variant N20D)
Indicator strains
  bioactivity of the producing strain, in words: devoid of bioactivity
[1]
  zone size relative to that of the NZ9800 pCI372nisA control: 0%
Staph. aureus DPC5245
  zone size relative to that of the NZ9800 pCI372nisA control: 0%
[2]
  zone size relative to that of the NZ9800 pCI372nisA control: 0%

## N20Y: nisin A derivative, hinge substitution N20Y (ITSISLCTPGCKTGALMGCYMKTATCHCSIHVSK; cysteine pairing not given here; also: lantibiotic nisin-A; UniProt P13068 24-57, looked up, variant N20Y)
[1]
  zone size relative to that of the NZ9800 pCI372nisA control: 33.5%
Staph. aureus DPC5245
  zone size relative to that of the NZ9800 pCI372nisA control: 55%
[2]
  zone size relative to that of the NZ9800 pCI372nisA control: 30.5%

## NisinA M21Y (ITSISLCTPGCKTGALMGCNYKTATCHCSIHVSK; not fully specified; also: lantibiotic: lanthionine rings and dehydro residues not placed; UniProt P13068 24-57, looked up, variant M21Y) [nisin A derivative, hinge substitution M21Y]
L. monocytogenes CBC2; producing strain
  Bioactivity relative to control: +
L. monocytogenes CBC1; producing strain
  Bioactivity relative to control: −
L. monocytogenes CBC3; producing strain
  Bioactivity relative to control: +
L. plantarum CBC6; producing strain
  Bioactivity relative to control: −
S. aureus CBC4; producing strain
  Bioactivity relative to control: +
L. lactis CBC8; producing strain
  Bioactivity relative to control: −
L. lactis CBC7; producing strain
  Bioactivity relative to control: +
Indicator strains
  Strain(s) against which the derivative (producing strain) displays enhanced bioactivity: L. monocytogenes CBC2 and CBC3 as well as Staph. aureus CBC4, C. sporogenes CBC5 and L. lactis CBC7; also recorded: L. monocytogenes CBC2, CBC3, S. aureus CBC4, C. sporogenes CBC5 and L. lactis 7
[2]
  zone size relative to that of the NZ9800 pCI372nisA control: 65%
C. sporogenes CBC5
  Bioactivity relative to control: +

## NisinA QLT (ITSISLCTPGCKTGALMGCQLTTATCHCSIHVSK; not fully specified (bridges); also: lantibiotic nisin-A: lanthionine rings and dehydrated residues, places not given here; UniProt P13068 24-57, looked up, variant N20Q M21L K22T) [nisin A hinge variant QLT (i.e. N20Q, M21L, K22T)]
L. monocytogenes CBC2
  bioactivity relative to a nisin A-producing control: −
L. monocytogenes CBC1
  bioactivity relative to a nisin A-producing control: −
L. monocytogenes CBC3
  bioactivity relative to a nisin A-producing control: −
L. plantarum CBC6
  bioactivity relative to a nisin A-producing control: −
S. aureus CBC4
  bioactivity relative to a nisin A-producing control: −
L. lactis CBC8
  bioactivity relative to a nisin A-producing control: −
L. lactis CBC7
  bioactivity relative to a nisin A-producing control: −
Indicator strains
  Target strain against which the hinge mutant was selected for enhanced bioactivity: Strep. agalactiae ATCC 13813
  Strain(s) against which the derivative (producing strain) displays enhanced bioactivity: S. agalactiae ATCC13813

## NisinA SVA (ITSISLCTPGCKTGALMGCSVATATCHCSIHVSK; not fully specified (bridges); also: lantibiotic nisin-A: lanthionine rings and dehydrated residues, places not given here; UniProt P13068 24-57, looked up, variant N20S M21V K22A) [nisin A hinge variant SVA (i.e. N20S, M21V, K22A)]
L. monocytogenes CBC2
  bioactivity relative to a nisin A-producing control: +
L. monocytogenes CBC1
  bioactivity relative to a nisin A-producing control: −
L. monocytogenes CBC3
  bioactivity relative to a nisin A-producing control: +
L. plantarum CBC6
  bioactivity relative to a nisin A-producing control: −
S. aureus CBC4
  bioactivity relative to a nisin A-producing control: +
L. lactis CBC8
  bioactivity relative to a nisin A-producing control: +
L. lactis CBC7
  bioactivity relative to a nisin A-producing control: +
Indicator strains
  Target strain against which the hinge mutant was selected for enhanced bioactivity: C. sporogenes UCC1
  Strain(s) against which the derivative (producing strain) displays enhanced bioactivity: C. sporogenes UCC1, L. monocytogenes CBC2 , CBC3, S. aureus CBC4 and L. lactis CBC7 , CBC8; also recorded: C. sporogenes UCC1, L. mono CBC2, CBC3, S. aureus
Indicator strains; of the 8 additional targets tested
  number of targets with enhanced activity: 5
